{"source": "paper doi:10.1101/2023.03.04.531071v1", "about": "(biorxiv, 2023)", "key": {"Xanthine oxidase (XO) [1]": {"target": "T1, Xanthine oxidase (XO) (Bos taurus, UniProt P80457)", "T1 sequence (P80457 2-1332)": "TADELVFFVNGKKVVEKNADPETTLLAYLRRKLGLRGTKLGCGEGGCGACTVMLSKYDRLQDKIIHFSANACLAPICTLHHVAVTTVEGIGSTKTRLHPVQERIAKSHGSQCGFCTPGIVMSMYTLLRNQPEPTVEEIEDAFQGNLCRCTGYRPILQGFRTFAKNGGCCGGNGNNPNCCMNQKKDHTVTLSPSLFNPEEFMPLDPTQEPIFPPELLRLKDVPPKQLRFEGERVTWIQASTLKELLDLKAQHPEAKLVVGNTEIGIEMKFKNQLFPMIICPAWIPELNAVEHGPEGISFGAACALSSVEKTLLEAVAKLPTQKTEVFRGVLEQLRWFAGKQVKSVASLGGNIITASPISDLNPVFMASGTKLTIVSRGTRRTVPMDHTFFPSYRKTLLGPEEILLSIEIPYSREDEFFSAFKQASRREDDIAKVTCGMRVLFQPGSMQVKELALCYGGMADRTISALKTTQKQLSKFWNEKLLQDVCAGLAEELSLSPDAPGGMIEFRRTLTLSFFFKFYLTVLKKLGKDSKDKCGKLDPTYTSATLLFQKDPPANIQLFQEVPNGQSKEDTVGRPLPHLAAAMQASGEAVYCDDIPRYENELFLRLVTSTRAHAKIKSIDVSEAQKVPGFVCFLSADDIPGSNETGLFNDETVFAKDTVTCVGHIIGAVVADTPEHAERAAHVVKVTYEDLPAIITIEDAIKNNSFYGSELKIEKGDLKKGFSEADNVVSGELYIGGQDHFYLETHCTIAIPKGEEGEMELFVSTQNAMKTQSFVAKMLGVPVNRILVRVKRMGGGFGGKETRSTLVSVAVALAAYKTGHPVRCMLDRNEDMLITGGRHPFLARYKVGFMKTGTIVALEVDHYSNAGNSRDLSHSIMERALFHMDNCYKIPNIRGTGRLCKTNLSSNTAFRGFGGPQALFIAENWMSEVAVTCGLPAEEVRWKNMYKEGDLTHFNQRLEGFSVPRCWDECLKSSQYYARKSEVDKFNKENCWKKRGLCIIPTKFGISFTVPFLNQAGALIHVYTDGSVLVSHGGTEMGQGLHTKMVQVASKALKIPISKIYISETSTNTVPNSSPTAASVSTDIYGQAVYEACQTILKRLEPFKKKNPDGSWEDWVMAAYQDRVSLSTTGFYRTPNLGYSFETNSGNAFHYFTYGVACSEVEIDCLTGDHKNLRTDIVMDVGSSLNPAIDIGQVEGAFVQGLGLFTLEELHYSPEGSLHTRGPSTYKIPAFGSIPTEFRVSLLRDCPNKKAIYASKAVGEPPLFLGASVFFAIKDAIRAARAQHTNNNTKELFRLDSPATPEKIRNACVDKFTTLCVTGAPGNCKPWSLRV", "test": "uric acid formation, absorbance […] nm", "format": "biochemical"}, "Xanthine oxidase (XO) [2]": {"target": "T1, Xanthine oxidase (XO)", "test": "uric acid formation, Morrison fit", "format": "biochemical"}}, "data": [{"smiles": "COc1cc(C)cc2c1C(=O)c1c(O)cccc1C2=O", "note": "[1-O-methyl chrysophanol]", "values": [{"measurement": "IC50", "setting": "Xanthine oxidase (XO) [1]", "result": "24.8 ± 0.072", "unit": "µM"}, {"measurement": "Ki", "setting": "Xanthine oxidase (XO) [2]", "result": "2.22 ± 0.307", "unit": "µM"}]}, {"smiles": "Cc1cc(O)c2c(c1)C(=O)c1cccc(O)c1C2=O", "note": "[Chrysophanol]", "values": [{"measurement": "IC50", "setting": "Xanthine oxidase (XO) [1]", "result": "200.9 ± 0.04", "unit": "µM"}, {"measurement": "Ki", "setting": "Xanthine oxidase (XO) [2]", "result": "38.7 ± 2.71", "unit": "µM"}]}]}
